In US7977360B2, “Benzo[d]isoxazol-3-yl-amine compounds and their use as vanilloid receptor ligands” (Gruenenthal GmbH, priority 2005, dated 2011):

Target: T1, vanilloid receptor 1 (VR1/TRPV1 receptor) (Rattus norvegicus, UniProt O35433)
T1 construct: endogenous in cells; host or cells: primary cultured dorsal root ganglion cells from rats
Assay: Functional study on vanilloid receptor 1 (VR1/TRPV1), FLIPR Ca2+ inflow assay in rat dorsal root ganglia cells (method I)
Assay type: cell-based
Settings: compound 10 μM, rat DRG cells; for inhibition at 10 µM: then 100 nM capsaicin after 5 min, per method % inhibition vs maximum achievable inhibition with 10 μM capsaicin, read-out: rVR1 [10 μM] inhibition; for rVR1 [10 μM] stimulation: per method % activation in relation to the Ca2+ signal after 10 μM capsaicin
From the text: I. Functional Study on Vanilloid Receptor 1 (VR1/TRPV1 Receptor)
The agonistic or antagonistic effect of the substances to be studied on vanilloid receptor 1 (VR1/TRPV1) of the rat species can be determined with the following assay. According to this assay, the Ca^2+ inflow through the receptor canal is quantified with the help of a Ca^2+-sensitive dye (type Fluo-4, Molecular Probes Europe BV, Leiden Netherlands) in the Fluorescent Imaging Plate Reader (FLIPR, Molecular Devices, Sunnyvale, USA).
Complete medium: 50 mL HAMS F12 Nutrient Mixture (Gibco Invitrogen GmbH, Karlsruhe, Germany) with • 10% by vol. FCS (fetal calf serum, Gibco Invitrogen GmbH, Karlsruhe, Germany, heat-inactivated); • 2 mM L-glutamine (Sigma, Munich, Germany); • 1% by weight AA solution (antibiotic/antimycotic solution, PAA, Pasching, Austria) and 25 ng/ml medium NGF (2.5 S, Gibco Invitrogen GmbH, Karlsruhe, Germany)
Cell culture plate: Poly-D-Lysin-coated, 96 well black/clear plates (BD Biosciences, Heidelberg, Germany) are additionally coated with laminin (Gibco Invitrogen GmbH, Karlsruhe, Germany) by diluting laminin to a concentration of […] with PBS (Ca—Mg-free PBS, Gibco Invitrogen GmbH, Karlsruhe, Germany). Aliquots with a concentration of 100 μg/mL of laminin are removed and stored at −20° C. The aliquots are diluted with PBS in a ratio of 1:10 to 10 μg/mL of laminin and respectively 50 μL of the solution is pipetted into a recess of the cell culture plate. Die cell culture plates are incubated for at least two hours at 37° C., the remaining solutions is filtered off by suction and the recesses are each washed twice with PBS. The coated cell culture plates are stored with the remaining PBS and this is only removed directly before the addition of the cells.
The spinal column is removed from decapitated rats and this is placed directly in a cold HBSS buffer (Hank's buffered saline solution, Gibco Invitrogen GmbH, Karlsruhe, Germany), located in an ice bath, to which is added 1% by vol. (percent by volume) of an AA solution (antibiotic/antimycotic solution, PM, Pasching, Austria). The spinal column is divided longitudinally and removed from the vertebral canal together with fascia. The dorsal root ganglia (DRGs) are subsequently removed and in turn stored in cold HBSS buffer to which is added 1% by vol. of an AA solution. The DRGs which have been made completely free of blood residues and spinal nerves are transported in each case into 500 μL cold collagenase type 2 (PAA, Pasching, Austria) and incubated for 35 minutes at 37° C. […]
The DRGs are each multiply suspended, drawn by means of a syringe through cannulas no. […] The resultant pellet is respectively received in 250 μL complete medium and the cell number determined. […]

T1 sequence (O35433 whole entry): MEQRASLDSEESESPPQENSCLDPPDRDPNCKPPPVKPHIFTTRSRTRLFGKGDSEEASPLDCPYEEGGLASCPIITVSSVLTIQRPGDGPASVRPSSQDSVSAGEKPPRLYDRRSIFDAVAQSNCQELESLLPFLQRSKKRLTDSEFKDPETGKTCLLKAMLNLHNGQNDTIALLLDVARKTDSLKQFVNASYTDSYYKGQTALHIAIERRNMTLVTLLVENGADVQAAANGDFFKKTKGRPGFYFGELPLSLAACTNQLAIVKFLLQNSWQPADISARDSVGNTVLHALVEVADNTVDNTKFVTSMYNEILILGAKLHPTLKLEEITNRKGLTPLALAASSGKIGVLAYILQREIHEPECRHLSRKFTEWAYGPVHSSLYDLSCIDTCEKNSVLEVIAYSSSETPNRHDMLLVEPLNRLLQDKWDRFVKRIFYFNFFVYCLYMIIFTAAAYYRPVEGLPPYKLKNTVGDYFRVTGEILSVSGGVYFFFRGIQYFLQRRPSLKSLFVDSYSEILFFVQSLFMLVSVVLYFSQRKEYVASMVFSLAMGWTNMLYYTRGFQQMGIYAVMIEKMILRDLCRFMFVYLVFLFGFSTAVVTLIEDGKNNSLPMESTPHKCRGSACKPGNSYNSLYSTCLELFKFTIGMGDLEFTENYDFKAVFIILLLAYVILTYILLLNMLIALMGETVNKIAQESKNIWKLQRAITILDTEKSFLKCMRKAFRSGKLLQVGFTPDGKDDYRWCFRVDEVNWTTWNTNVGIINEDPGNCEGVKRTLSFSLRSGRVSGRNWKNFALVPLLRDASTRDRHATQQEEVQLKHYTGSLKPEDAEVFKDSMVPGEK

inhibition at 10 µM	rVR1 [10 μM] stimulation	SMILES
99%	29%	Cc1cccnc1-c1ccc2c(NCc3ccc(C(C)(C)C)cc3)noc2c1 [Compound 10, (4-tert-butyl-benzyl)-[6-(3-methyl-pyridine-2-yl)-benzo[d]isoxazol-3-yl]-amine]
65%	0%	CC(C)(C)c1ccc(CNc2noc3cc(-c4ccccn4)ccc23)cc1 [Compound 9, (4-tert-butyl-benzyl)-(6-pyridine-2-yl-benzo[d]isoxazol-3-yl)-amine]
